Where two headings read alike, the source gives them in different places. No end group written: not given here.

Common to all, as to assay: biochemical
Holding throughout (format): binding

Assay [1] deals with HLA-DR DRB1*0101 (DR1) (Homo sapiens, UniProt P01903+P01911, A100R/D57E/F55L/F60I/F76Y/I96L/L162R/M171V/P40L/Q125E/R42F/V115G/Y59C).
The target of assay [2] is HLA-DR DRB1*1501 (DR15) (Homo sapiens, UniProt P01903+P01911).
Assay [3] deals with HLA-DR DRB5*0101 (DR51) (Homo sapiens, UniProt P01903+Q30154).
The target of assay [4] is HLA-DR DRB4*0101 (DR53) (Homo sapiens, UniProt P01903+P13762, G164S).
The target in assay [5] is HLA-DR DRB1*0401 (DR4) (Homo sapiens, UniProt P01903+P01911, A100K/A169T/F76Y/I96L/K127E/L162R/M171V/N62H/P40V/Q125Y/R42H/S133A/S149N/S66Y/V115G/V209L/W38E).
Assay [6] addresses HLA-DR DRB1*1302 (DR13) (Homo sapiens, UniProt P01903+P01911, A100E/A169T/K41T/L162R/M171V/P40S/Q125H/Q178H/Q39Y/Q99D/R42S/S66N/T262R/V115G/W38E/Y61H). The conditions noted are these: read-out: DRBI *1302.
Assay [7] addresses HLA-DR DRB1*0701 (DR7) (Homo sapiens, UniProt P01903+P01911, A100R/A102G/A103Q/D57E/D86V/E43K/F76Y/K127E/L162R/M171V/P40G/Q125H/Q99D/R33Q/R42Y/R54Q/S133A/S66F/T210M/V115G/Y107V/Y59L/Y89S). Conditions: read-out: DRB1 *0701.

HLA-DR DRB1*1302 (DR13), sequence (P01903 26-254 limits assumed, other chains not shown): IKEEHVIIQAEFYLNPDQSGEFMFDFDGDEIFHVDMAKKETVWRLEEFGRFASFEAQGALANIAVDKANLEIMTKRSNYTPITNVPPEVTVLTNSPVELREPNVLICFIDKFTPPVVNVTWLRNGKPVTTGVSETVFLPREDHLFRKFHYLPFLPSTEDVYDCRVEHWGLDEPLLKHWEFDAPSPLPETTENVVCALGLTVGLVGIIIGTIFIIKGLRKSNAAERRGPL

Consider (52)AAAATKAAAA, for which the IC50 in assay [1] (read-out: DRB1 *0101) came to 2000 nM.
Regarding FLYGALLLAEGFYTTGAVRQ, the IC50 in assay [2] (DRBI *1501) is 45 nM; in assay [3] (DRB5 *0101), 256 nM.
In assay [4] (DRB4 *0101), NLALQTLPAMCNVY had an IC50 of 27 nM.
Consider AAFFFFFGGGGGA, for which the results for the IC50 in assay [1] (DRB1 *0101) and in assay [5] (DRB1 *0401) were not below 50000 nM and 800 nM, respectively.
Compound FLGQQQPFPPQ gave an IC50 in assay [4] (DRB4 *0101) of 31 nM.
In turn, `CC[C@H](C)[C@H](N)C(=O)NCC(=O)N[C@@H](Cc1c[nH]cn1)C(=O)N[C@@H](CC(C)C)C(=O)N[C@@H](Cc1ccc(O)cc1)C(=O)N[C@H](C(=O)N[C@@H](Cc1ccccc1)C(=O)N[C@@H](C)C(=O)N[C@H](C(=O)N[C@@H](CS)C(=O)N[C@@H](CC(C)C)C(=O)NCC(=O)N[C@@H](CC(C)C)C(=O)N[C@@H](CO)C(=O)N[C@@H](Cc1ccc(O)cc1)C(=O)N[C@@H](CC(=O)O)C(=O)NCC(=O)N[C@@H](CC(C)C)C(=O)O)[C@@H](C)O)[C@@H](C)CC` gave an IC50 in assay [5] (DRB1 *0401) of more than 816 nM.
In turn, PQPFRPQKPYPQ registered an IC50 in assay [4] (DRB4 *0101) of 22 nM.
Consider KYVKQNTLKLAT, for which the IC50 in assay [1] came out at 9.9 nM; in assay [5], 6.2 nM.
As for ENPVVHFFANIVTPR, the results for the IC50 in assay [2] (DRBI *1501) and in assay [3] (DRB5 *0101) were 2.9 nM and 6240 nM, respectively.
Consider AAANAAAAAAAAA, for which, in assay [1], the IC50 is not below 50000 nM.
Turning to AALKATAAAAAAA, the IC50 was not below 50000 nM in assay [1] (DRB1 *0101) and 800 nM in assay [5] (DRB1 *0401).
In the case of `CC(C)C[C@H](NC(=O)[C@H](CCCCN)NC(=O)[C@H](C)NC(=O)[C@@H](NC(=O)[C@H](CCCCN)NC(=O)[C@H](CCCNC(=N)N)NC(=O)[C@H](CO)NC(=O)[C@H](CC(C)C)NC(=O)[C@H](C)NC(=O)[C@H](C)NC(=O)[C@H](CCC(N)=O)NC(=O)[C@H](Cc1ccccc1)NC(=O)[C@H](CCC(=O)O)NC(=O)[C@H](CO)NC(=O)[C@@H](N)CCC(=O)O)C(C)C)C(=O)O`, in assay [5] (DRB1 *0401), the IC50 is 579 nM.
PQPFRPQQP returned an IC50 in assay [4] (DRB4 *0101) of 19 nM.
With AAKAAAAAAA(10)AA, the IC50 in assay [5] (read-out: DRB1 *0401) is more than 889 nM.
In the case of QFLGQQQPFPPQ, the IC50 in assay [4] (DRB4 *0101) turned out to be 2.8 nM.
Consider YFNNFTVSFWLRVPK, for which the IC50 in assay [1] was not below 50000 nM.
The compound AAEAAAATAKAAA returned an IC50 in assay [1] (DRB1 *0101) of 2500 nM.
Consider LEDLLMGTLGIVCPI, for which the IC50 in assay [6] was 1690 nM; in assay [4] (read-out: DRB4 *0101) it was 1800 nM; in assay [3] (read-out: DRB5 *0101) it was 9480 nM.
Turning to AFLRAAAAAAFAA, the results for the IC50 in assay [1] (DRB1 *0101) and in assay [5] (DRB1 *0401) were not below 50000 nM and 400 nM, respectively.
The corresponding values for AAFIFIGGGKIKA are not below 50000 nM and 195 nM.
As for AWVAWRNRCK, the IC50 was more than 12500 nM in assay [7] and not below 50000 nM in assay [1] (read-out: DRB1 *0101).
For the compound YSFFPSI [YSFFPSI], the IC50 in assay [1] (DRB1 *0101) is not below 50000 nM.
In turn, LGQQQPFPPQ came in with an IC50 in assay [4] (DRB4 *0101) of 151 nM.
In the case of PQPFRKQQPYPQ, the IC50 in assay [4] (DRB4 *0101) came to 22 nM.
KQPFRPQQPYPQ: in assay [4] (DRB4 *0101), the IC50 came to 56 nM.
In assay [1] (DRB1 *0101), AAAKAAAAFAAAA registered an IC50 not below 50000 nM.
For the compound ESTGMTPEKVPVSEVM, the IC50 is more than 17500 nM in assay [6] and more than 64400 nM in assay [4] (read-out: DRB4 *0101).
P(X)KQNTLKLAT: the IC50 in assay [1] (read-out: DRB1 *0101) amounted to 1.7 nM.
As for (43)AAIGGIFIFKKDA, the IC50 in assay [5] (read-out: DRB1 *0401) is 800 nM.
Take ACAAAKATAAAA(10)AA: the IC50 in assay [1] (read-out: DRB1 *0101) came out at 5000 nM.
On to PFRPQQPYPQ, for which the IC50 in assay [4] (DRB4 *0101) is 42 nM.
With PQPFKPQQPYPQ, the IC50 in assay [4] (DRB4 *0101) is 19 nM.
`C[C@H](NC(=O)[C@H](C)NC(=O)[C@H](C)NC(=O)[C@H](C)NC(=O)[C@H](C)NC(=O)[C@H](C)NC(=O)[C@H](C)NC(=O)[C@H](C)NC(=O)[C@H](C)NC(=O)[C@H](C)NC(=O)[C@H](C)NC(=O)[C@H](C)NC(=O)[C@@H](N)Cc1ccccc1)C(=O)O` had an IC50 in assay [5] (DRB1 *0401) of 200 nM.
For the compound PKYFKQGFLKGAT, the IC50 in assay [1] was not below 50000 nM; in assay [5], 800 nM.
With YAR(15A)RQTTLKA, the IC50 was 8330 nM in assay [7], 1.6 nM in assay [1] (read-out: DRB1 *0101) and 0.35 nM in assay [5] (read-out: DRB1 *0401).
As to PQPFRPQQPYKQ, in assay [4] (DRB4 *0101), the IC50 stood at 35 nM.
Regarding `C[C@H](N)C(=O)N[C@@H](C)C(=O)N[C@@H](C)C(=O)N[C@@H](C)C(=O)N[C@@H](C)C(=O)N[C@@H](C)C(=O)N[C@@H](C)C(=O)N[C@@H](C)C(=O)N[C@@H](C)C(=O)N[C@@H](C)C(=O)N[C@@H](C)C(=O)N[C@@H](CC(N)=O)C(=O)N[C@@H](C)C(=O)O`, the results for the IC50 in assay [1] (DRB1 *0101) and in assay [5] (DRB1 *0401) were not below 50000 nM and 1000 nM, respectively.
For the compound AFAAAKTAA(72), the IC50 in assay [1] (read-out: DRB1 *0101) turned out to be 5000 nM.
As for (43)AADFGIFIDFHA, the IC50 in assay [5] (read-out: DRB1 *0401) came out at 235 nM.
As to `C[C@H](N)C(=O)N[C@@H](CO)C(=O)N[C@@H](C)C(=O)N[C@@H](C)C(=O)N[C@@H](C)C(=O)N[C@@H](C)C(=O)N[C@@H](C)C(=O)N[C@@H](C)C(=O)N[C@@H](C)C(=O)N[C@@H](C)C(=O)N[C@@H](C)C(=O)N[C@@H](C)C(=O)N[C@@H](C)C(=O)O`, the IC50 in assay [1] (DRB1 *0101) was not below 50000 nM.
With ENPVVHFFKIHVTPA, in assay [2] (read-out: DRBI *1501), the IC50 amounted to 2.5 nM.
Consider AAKGIKIGFGIFA, for which the IC50 is not below 50000 nM in assay [1] (DRB1 *0101) and 471 nM in assay [5] (DRB1 *0401).

The values are drawn from patent US20060079453A1, “Hla binding peptides and their uses” (priority 2002, published 2006).
